From patent publication US9572785B2, “DP2 antagonist and uses thereof” (Brickell Biotech, Inc., priority 2009, dated 2017)
≈ marks a conversion by molar mass, not a printed value. Read-outs that look alike come from different tables or passages of the source.

Legend:
[1] = target: T1, recombinant human CRTH2 receptor (Homo sapiens, UniProt Q9Y5Y4); test: In vitro GTPγS binding assay; format: biochemical; conditions: CHO membranes, 80 nM PGD2, 0.2% human serum albumin
T1 construct: expressed in transfected cells
T1 sequence (Q9Y5Y4 1-395): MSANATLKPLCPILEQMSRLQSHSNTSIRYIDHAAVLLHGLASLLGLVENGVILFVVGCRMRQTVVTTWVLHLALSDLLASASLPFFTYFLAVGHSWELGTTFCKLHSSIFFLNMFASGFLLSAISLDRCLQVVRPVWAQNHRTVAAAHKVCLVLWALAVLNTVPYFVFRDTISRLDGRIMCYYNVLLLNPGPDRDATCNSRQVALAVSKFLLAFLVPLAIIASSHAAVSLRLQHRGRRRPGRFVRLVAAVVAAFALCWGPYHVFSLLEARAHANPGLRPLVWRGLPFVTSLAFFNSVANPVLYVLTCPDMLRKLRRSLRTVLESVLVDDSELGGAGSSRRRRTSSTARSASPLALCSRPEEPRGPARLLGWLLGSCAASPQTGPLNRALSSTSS

DP2 receptor [2] = target: T2, DP2 receptor (Homo sapiens, UniProt Q9Y5Y4); test: In vitro scintillation proximity assay (SPA) off-rate; format: binding; conditions: compared with PGD2
T2 sequence (Q9Y5Y4 1-395): T1 sequence (Q9Y5Y4 1-395)

clinical = conditions: human
in vivo [3] = conditions: Hartley, guinea pig, in vivo
[4] = Properties of the amorphous phase; format: physicochemical
physchem = conditions: water, 25 °C, pH 6.1, water, thermodynamic from solid
guinea pig DP2 receptor = target: T3, guinea pig DP2 receptor (Cavia porcellus, UniProt H0W1T0); test: DP2 radioligand membrane binding assay, guinea pig
T3 sequence (H0W1T0 1-391): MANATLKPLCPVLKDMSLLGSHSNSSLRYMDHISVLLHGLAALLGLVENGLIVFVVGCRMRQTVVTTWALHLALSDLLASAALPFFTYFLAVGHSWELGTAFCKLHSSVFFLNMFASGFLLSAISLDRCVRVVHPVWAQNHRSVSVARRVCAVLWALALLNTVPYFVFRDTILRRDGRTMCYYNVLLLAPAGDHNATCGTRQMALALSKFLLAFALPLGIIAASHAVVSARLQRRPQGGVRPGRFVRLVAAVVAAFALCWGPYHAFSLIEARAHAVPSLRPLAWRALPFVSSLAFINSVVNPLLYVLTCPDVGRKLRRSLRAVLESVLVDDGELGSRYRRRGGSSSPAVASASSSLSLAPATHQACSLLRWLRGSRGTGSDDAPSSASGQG
Procedure: (§1) HEK293 cells stably expressing recombinant human DP2 are resuspended in 10 mM Hepes, 7.4 containing 1 mM DTT, lysed and centrifuged at 75,000×g to pellet the membranes. The membranes are resuspended in 10 mM Hepes, 7.4 containing 1 mM DTT and 10% glycerol to approximately 5 mg protein/ml. […] The reactions are terminated by rapid filtration through Whatman GF/C glass fibre filter plates. […] After harvesting, the filter plates are washed 3 times with 1 ml cold Wash Buffer then dried. Scintillant is then added to the plates and the radioactivity retained on the filters is determined on a Packard TopCount (Perkin Elmer). Specific binding is determined as total radioactive binding minus non-specific binding in the presence of 10 μM PGD2. IC50s were determined using GraphPad prism analysis of drug titration curves. Mouse, rat and guinea pig DP2 receptors were also investigated.

DP2 receptor [5] = target: T4, DP2 receptor (Cavia porcellus, UniProt H0W1T0); test: Whole blood eosinophil shape change (ESC) assay, guinea pig; format: cell-based; conditions: read-out: IC50, PGD2-induced eosinophil shape change
T4 sequence (H0W1T0 1-391): T3 sequence (H0W1T0 1-391)

in vivo [6] = conditions: mouse, plasma, po, 10 mg/kg
[7] = Solubility profiling at various pHs; format: physicochemical; conditions: 0.15 M NaCl (aq), pH-adjusted, 25 °C, thermodynamic from solid
Procedure: Aqueous solubility was determined by suspending sufficient compound in water to give a maximum final concentration of ≧10 mg·ml^−1 of the parent free-form of the compound. The suspension was equilibrated at 25° C. for 24 hours then the pH was measured. The suspension was then filtered through a glass fibre C filter into a 96 well plate. The filtrate was then diluted by an appropriate factor. Quantitation was by HPLC with reference to a standard solution of approximately 0.1 mg·ml^−1 in DMSO. Different volumes of the standard, diluted and undiluted sample solutions were injected. The solubility was calculated using the peak areas determined by integration of the peak found at the same retention time as the principal peak in the standard injection.
The aqueous solubility was determined using the method described in Table 1. The pH was varied by the suspensions being made up in 0.15 M NaCl (aq) and the pH adjusted to the appropriate value with either dilute HCl or NaOH. The suspension was then allowed to equilibrate for two hours followed by checking the pH and readjustment if required, using either HCl or NaOH as appropriate. The suspension was then allowed to equilibrate for 24 hrs.

DP2 receptor [8] = target: T2, DP2 receptor; test: In vitro DP2/CRTH2 radioligand binding assay ([3H]PGD2), human; set-up: expressed in transfected cells
Procedure: as §1

Question: Which IC50 [1] does the source give for CCN(Cc1cc(C(F)(F)F)ccc1-c1cc(CC(=O)O)ccc1OC)C(=O)NCc1ccccc1 [Compound 1, [2′-(3-benzyl-1-ethyl-ureidomethyl)-6-methoxy-4′-trifluoromethyl-biphenyl-3-yl]-acetic acid] here?
Answer: Its IC50 is < 0.02 µM.

Question: And the “off-rate from the DP2 receptor” value (DP2 receptor [2])?
Answer: Its value is “longer off-rate than PGD2”.

Question: What about the half-life (clinical; in vivo) of the same molecule?
Answer: The half-life was 6.6 to 11 h.

Question: And the AUC(0-t) (clinical; plasma, oral, 30 mg)?
Answer: The AUC(0-t) was 0.0323 µg·h/mL.

Question: What about the Cmax (clinical; plasma, oral, 30 mg) of the same molecule?
Answer: The Cmax was 0.016 µg/mL.

Question: What about the AUC(0-t) (clinical; plasma, po, 30 mg) of the same molecule?
Answer: The AUC(0-t) was 0.0241 µg·h/mL.

Question: And the Cmax (clinical; plasma, po, 30 mg)?
Answer: The Cmax was 0.0112 µg/mL.

Question: And the half-life (clinical; plasma, po, 30 mg)?
Answer: Its half-life is 6.6 h.

Question: And the AUC(0-t) (clinical; plasma, po, 100 mg)?
Answer: The AUC(0-t) was 0.118 µg·h/mL.

Question: What about the Cmax (clinical; plasma, po, 100 mg) of the same molecule?
Answer: Its Cmax is 0.081 µg/mL.

Question: What about the half-life (clinical; plasma, po, 100 mg) of the same molecule?
Answer: The half-life was 8.1 h.

Question: What about the AUC(0-t) (clinical; plasma, po, 300 mg) of the same molecule?
Answer: Its AUC(0-t) is 1.42 µg·h/mL.

Question: What about the Cmax (clinical; plasma, po, 300 mg) of the same molecule?
Answer: The Cmax was 1.4 µg/mL.

Question: And the half-life (clinical; plasma, po, 300 mg)?
Answer: Its half-life is 7 h.

Question: What about the concentration at 18.5 h (in vivo [3]) of the same molecule?
Answer: Its concentration at 18.5 h is < 0.04 µM.

Question: What about the “solubility in water” value [4] of the same molecule?
Answer: The value was “sparingly soluble in water”.

Question: And the “hygroscopicity, weight change” value ([4]; from 0% to 90% relative humidity)?
Answer: Its value is 1.7%.

Question: What about the solubility at 24 h (physchem) of the same molecule?
Answer: Its solubility at 24 h is 0.21 mg/mL (≈ 420 µM).

Question: What about the IC50 (guinea pig DP2 receptor; average IC50, inhibition of radiolabeled PGD2 binding, guinea pig DP2, membrane binding) of the same molecule?
Answer: Its IC50 is 0.0049 µM.

Question: And the IC50 (guinea pig DP2 receptor; guinea pig DP2 receptor, in the presence of 0.2% guinea pig serum albumin, read-out: IC50, radioligand membrane binding)?
Answer: The IC50 was 0.0229 µM.

Question: What about the IC50 (DP2 receptor [5]) of the same molecule?
Answer: The IC50 was 0.0215 µM.

Question: What about the concentration at 1 h (in vivo [6]) of the same molecule?
Answer: The concentration at 1 h was 0.28 µM.

Question: What about the concentration at 2 h (in vivo [6]) of the same molecule?
Answer: Its concentration at 2 h is 0.15 µM.

Question: What about the concentration at 4 h (in vivo [6]) of the same molecule?
Answer: Its concentration at 4 h is 0.07 µM.

Question: What about the concentration at 8 h (in vivo [6]) of the same molecule?
Answer: The concentration at 8 h was 0.03 µM.

Question: And the concentration at 24 h (in vivo [6])?
Answer: The concentration at 24 h was < 0.008 µM.

Question: What about the solubility at 24 h ([7]; pH 5.6, saline or isotonic, Media pH 6, original pH 6.02, final pH 5.60) of the same molecule?
Answer: Its solubility at 24 h is 0.16 mg/mL (≈ 320 µM).

Question: And the solubility at 24 h ([7]; saline or isotonic, Media pH 1, original pH 1.15, final pH 1.15)?
Answer: The solubility at 24 h was 0.0069 mg/mL (≈ 13.8 µM).

Question: And the solubility at 24 h ([7]; saline or isotonic, Media pH 2, original pH 2.0, final pH 2.0)?
Answer: Its solubility at 24 h is 0.0016 mg/mL (≈ 3.2 µM).

Question: And the solubility at 24 h ([7]; saline or isotonic, Media pH 3, original pH 3.01, final pH 3.1)?
Answer: Its solubility at 24 h is 0.0022 mg/mL (≈ 4.4 µM).

Question: And the solubility at 24 h ([7]; saline or isotonic, Media pH 4, original pH 3.97, final pH 4.22)?
Answer: Its solubility at 24 h is 0.0035 mg/mL (≈ 6.99 µM).

Question: What about the solubility at 24 h ([7]; saline or isotonic, Media pH 5, original pH 5.0, final pH 5.07) of the same molecule?
Answer: Its solubility at 24 h is 0.053 mg/mL (≈ 106 µM).

Question: And the solubility at 24 h ([7]; saline or isotonic, Media pH 7, original pH 7.03, final pH 6.47)?
Answer: The solubility at 24 h was 0.59 mg/mL (≈ 1180 µM).

Question: What about the solubility at 24 h ([7]; saline or isotonic, Media pH 8, original pH 8.09, final pH 7.07) of the same molecule?
Answer: The solubility at 24 h was 2.2 mg/mL (≈ 4400 µM).

Question: What about the “increase in 4-hydroxydiclofenac (CYP2C9) production compared to native cells” value (CYP2C9) of the same molecule?
Answer: Its value is 1.1 fold.

Question: What about the IC50 (DP2 receptor [8]; human DP2, membrane binding, read-out: average IC50, inhibition of radiolabeled PGD2 binding) of the same molecule?
Answer: The IC50 was 0.0049 µM.

Question: What about the IC50 (DP2 receptor [8]; with human serum albumin, read-out: IC50, DP2 receptor binding) of the same molecule?
Answer: The IC50 was 0.0122 µM.
